In patent publication US20240100023A1, “Compositions and Methods For Treating Spinal Cord Injuries” (priority 2020, published 2024):

What was measured:
BDNF and NGF mRNAs = experiment: BDNF and NGF mRNA prevalence in brain regions (anti-sense cRNA assays); format: in vivo; details: for NGF message levels in the dentate gyrus granule cell layers: ampakine-stimulated versus vehicle-treated control; for BDNF and NGF mRNAs in layer II of the piriform cortex: systemic, CX516 30 mg/kg/day, CX691 3 mg/kg/day
Excerpt: Ampakines enhanced NGF mRNA somewhat more than that of BDNF.

[1] = system: fragile X syndrome (FXS) patients; details: in vivo; cited from earlier work

Compound | NGF message levels in the dentate gyrus granule cell layers (BDNF and NGF mRNAs) | BDNF and NGF mRNAs in layer II of the piriform cortex (BDNF and NGF mRNAs) | Concentration at which seizure activity is seen in hippocampal slices (hippocampal slices) | Memory, language use, attention, executive and overall functioning in FXS [1]
O=C(c1ccc2nonc2c1)N1CCCCC1 [CX691] | significantly enhanced | significantly up-regulated |  | 
O=C1c2cc3c(cc2OC2CCCN12)OCCO3 (stereo not drawn) [CX614, reference compound] |  |  | 16 µM | 
O=C(c1ccc2nccnc2c1)N1CCCCC1 [CX516] | significantly enhanced | significantly up-regulated |  | did not exhibit improved memory
